Results on 30 compounds are retold here after patent US20240383904A1, “HETEROCYCLIC COMPOUNDS” (Hoffmann-La Roche Inc., priority 2021, published 2024).

For this assay, the target named is T1, MAGL (Homo sapiens, UniProt Q99685).
T1 sequence (Q99685 1-303): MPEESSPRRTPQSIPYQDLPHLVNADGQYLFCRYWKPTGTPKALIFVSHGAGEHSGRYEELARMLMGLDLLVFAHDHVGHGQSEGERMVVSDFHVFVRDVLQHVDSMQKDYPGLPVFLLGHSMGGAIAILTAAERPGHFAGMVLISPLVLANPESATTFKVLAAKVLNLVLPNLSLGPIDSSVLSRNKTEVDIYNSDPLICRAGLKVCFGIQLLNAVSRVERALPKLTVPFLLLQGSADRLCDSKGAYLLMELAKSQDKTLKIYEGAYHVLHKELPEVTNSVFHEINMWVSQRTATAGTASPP
Kind of assay: 2-AG assay: MAGL inhibitory activity by hydrolysis of 2-arachidonoylglycerol to arachidonic acid, followed by mass spectrometry. In kind it is biochemical. The conditions noted are these: 15 min preincubation, 30 min reaction at RT, 8 μM 2-arachidonoylglycerol.

A word on the IC50: it is the concentration that gives 50% inhibition.

`N=[S@](=O)(c1cccc(CC2CC3(C2)CN(C(=O)N2CC4(CCC(=O)N4)C2)C3)c1)C(F)(F)F` [Example 292, 2-[6-[[3-(trifluoromethylsulfoni-midoyl)phenyl]methyl]-2-azaspiro[3.3]heptane-2-carbonyl]-2,5-diazaspiro[3.4]octan-6-one] returned an IC50 of 1.29 nM. The compound `N=[S@](=O)(c1cccc(CC2CC3(C2)CN(C(=O)N2CC4(CCCC(=O)N4)C2)C3)c1)C(F)(F)F` [Example 293, 2-[6-[[3-(trifluoromethylsulfoni-midoyl)phenyl]methyl]-2-azaspiro[3.3]heptane-2-carbonyl]-2,5-diazaspiro[3.5]nonan-6-one] returned an IC50 of 69.4 nM. The value for `N=[S@](=O)(c1cccc(CC2CC3(C2)CN(C(=O)N2CC4(COCC(=O)N4)C2)C3)c1)C(F)(F)F` [Example 294, 2-[6-[[3-(trifluoromethylsulfoni-midoyl)phenyl]methyl]-2-azaspiro[3.3]heptane-2-carbonyl]-8-oxa-2,5-diazaspiro[3.5]nonan-6-one] was 2.15 nM.

In the case of `O=C1CCC2(CN(C(=O)N3CC4(CC(Cc5ccc(S(=O)(=O)C(F)(F)F)cc5)C4)C3)C2)N1` [Example 295, 2-[6-[[4-(trifluoromethylsulfonyl)phenyl]methy]-2-azaspiro[3.3]heptane-2-carbonyl]-2,5-diazaspiro[3.4]octan-6-one], 0.07 nM corresponded to half-maximal inhibition (IC50). Under `O=C1COCC2(CN(C(=O)N3CC4(CC(Cc5ccc(S(=O)(=O)C(F)(F)F)cc5)C4)C3)C2)N1` [Example 296, 2-[6-[[4-(trifluoromethylsulfonyl)phenyl]methyl]-2-azaspiro[3.3]heptane-2-carbonyl]-8-oxa-2,5-diazaspiro[3.5]nonan-6-one] stands 0.15 nM; under `N=S(=O)(c1cccc(OC(F)(F)F)c1)C1CC2(C1)CN(C(=O)N1CC3(CCC(=O)N3)C1)C2` (stereo not drawn) [Example 297, 2-[6-[[3-(trifluoromethoxy)phenyl]sulfonimidoyl]-2-azaspiro[3.3]heptane-2-carbonyl]-2,5-diazaspiro[3.4]octan-6-one], 75.9 nM; under `N=S(=O)(c1cc(F)cc(CC2CC3(C2)CN(C(=O)N2CC4(CCC(=O)N4)C2)C3)c1)C(F)(F)F` (stereo not drawn) [Example 298, 2-[6-[[3-fluoro-5-(trifluoromethylsulfoni-midoyl)phenyl]methyl]-2-azaspiro[3.3]heptane-2-carbonyl]-2,5-diazaspiro[3.4]octan-6-one], 0.83 nM.

The compound `O=C1CCC2(CN(C(=O)N3CC4(CC(Oc5cncc(C(F)(F)F)c5)C4)C3)C2)N1` [Example 299, 2-[6-[[5-(trifluoromethyl)-3-pyridyl]oxy]-2-azaspiro[3.3]heptane-2-carbonyl]-2,5-diazaspiro[3.4]octan-6-one] gave a concentration for half-maximal inhibition (IC50) of 63.5 nM. Against the preceding compound, the IC50 is about 77-fold higher. The value for `O=C1CCC2(CN(C(=O)N3CC4(CC(Cn5ncc(C(F)(F)F)n5)C4)C3)C2)N1` [Example 300, 2-[6-[[4-(trifluoromethyl)triazol-2-yl]methyl]-2-azaspiro[3.3]heptane-2-carbonyl]-2,5-diazaspiro[3.4]octan-6-one] was 47.4 nM; that for `N#Cc1ccc(OC2CC3(C2)CN(C(=O)N2CC4(CCC(=O)N4)C2)C3)cc1C(F)(F)F` [Example 301, 4-[[2-(6-oxo-2,5-diazaspiro[3.4]octane-2-carbonyl)-2-azaspiro[3.3]heptan-6-yl]oxy]-2-(trifluoromethyl)benzoni-trile] was 15.4 nM.

Compound `N#Cc1ccc(OC2CC3(C2)CN(C(=O)N2CC4(COCC(=O)N4)C2)C3)cc1C(F)(F)F` [Example 302, 4-[[2-(6-oxo-8-oxa-2,5-diazaspiro[3.5]nonane-2-carbonyl)-2-azaspiro[3.3]heptan-6-yl]oxy]-2-(trifluoromethyl)benzoni-trile] showed an IC50 of 68.8 nM. As for `O=C1CCC2(CN(C(=O)N3CC4(CC(Oc5ccc(Cl)cn5)C4)C3)C2)N1` [Example 303, 2-[6-[(5-chloro-2-pyridyl)oxy]-2-azaspiro[3.3]heptane-2-carbonyl]-2,5-diazaspiro[3.4]octan-6-one], the midpoint of inhibition, the IC50, lay at 35.7 nM. Compared with the last compound, the IC50 is about 1.9-fold lower. The value for `Cn1cc(C(F)(F)F)c(CC2CC3(C2)CN(C(=O)N2CC4(CCC(=O)N4)C2)C3)n1` [Example 304, 2-[6-[[1-methyl-4-(trifluoromethyl)pyrazol-3-yl]methyl]-2-azaspiro[3.3]heptane-2-carbonyl]-2,5-diazaspiro[3.4]octan-6-one] was 3.73 nM; that for `Cc1nn(C)c(Cl)c1CN1CC2(C1)CN(C(=O)N1CC3(COC(=O)N3)C1)C2` [Example 305, 2-[6-[(5-chloro-1,3-dimethyl-pyrazol-4-yl)methyl]-2,6-diazaspiro[3.3]heptane-2-carbonyl]-7-oxa-2,5-diazaspiro[3.4]octan-6-one] was 20.9 nM. The value for `O=C1CCC2(CN(C(=O)N3CC4(CN(Cc5nc(C(F)(F)F)cs5)C4)C3)C2)N1` [Example 306, 2-[6-[[4-(trifluoromethyl)thiazol-2-yl]methyl]-2,6-diazaspiro[3.3]heptane-2-carbonyl]-2,5-diazaspiro[3.4]octan-6-one] was 287 nM; that for `N#Cc1cc(OC2CC3(C2)CN(C(=O)N2CC4(CCC(=O)N4)C2)C3)ccc1C(F)(F)F` [Example 307, 5-[[2-(6-oxo-2,5-diazaspiro[3.4]octane-2-carbonyl)-2-azaspiro[3.3]heptan-6-yl]oxy]-2-(trifluoromethyl)benzoni-trile] was 48.1 nM; that for `O=C1CCC2(CN(C(=O)N3CC4(CC(Oc5nc(C(F)(F)F)cs5)C4)C3)C2)N1` [Example 308, 2-[6-[4-(trifluoromethyl)thiazol-2-yl]oxy-2-azaspiro[3.3]heptane-2-carbonyl]-2,5-diazaspiro[3.4]octan-6-one] was 49 nM. The value for `O=C1CCC2(CN(C(=O)N3CC4(CC(Oc5ccc(F)cn5)C4)C3)C2)N1` [Example 309, 2-[6-[(5-fluoro-2-pyridyl)oxy]-2-azaspiro[3.3]heptane-2-carbonyl]-2,5-diazaspiro[3.4]octan-6-one] was 94.9 nM.

In turn, `Cn1cc(OC2CC3(C2)CN(C(=O)N2CC4(CCC(=O)N4)C2)C3)c(C(F)(F)F)n1` [Example 310, 2-[6-[1-methyl-3-(trifluoromethyl)pyrazol-4-yl]oxy-2-azaspiro[3.3]heptane-2-carbonyl]-2,5-diazaspiro[3.4]octan-6-one] came in with an IC50 of 76.9 nM. Compound `O=C1CCC2(CN(C(=O)N3CC4(CC(Cn5cc(C6(C(F)(F)F)CC6)cn5)C4)C3)C2)N1` [Example 311, 2-[6-[[4-[1-(trifluoromethyl)cyclopro-pyl]pyrazol-1-yl]methyl]-2-azaspiro[3.3]heptane-2-carbonyl]-2,5-diazaspiro[3.4]octan-6-one] came in with an IC50 of 4.08 nM. Under `O=C1CCC2(CN(C(=O)N3CC4(CC(Cc5cc(C(F)(F)F)ncn5)C4)C3)C2)N1` [Example 312, 2-[6-[[6-(trifluoromethyl)pyrimi-din-4-yl]methyl]-2-azaspiro[3.3]heptane-2-carbonyl]-2,5-diazaspiro[3.4]octan-6-one] stands 54.9 nM.

`O=C1CCC2(CN(C(=O)N3CC4(CC(Oc5ncc(F)cc5Cl)C4)C3)C2)N1` [Example 313, 2-[6-[(3-chloro-5-fluoro-2-pyridyl)oxy]-2-azaspiro[3.3]heptane-2-carbonyl]-2,5-diazaspiro[3.4]octan-6-one]: half-maximal inhibition (IC50) required 27.8 nM. Consider `O=C1CCC2(CN(C(=O)N3CC4(CC(Cc5ccnc(C(F)(F)F)n5)C4)C3)C2)N1` [Example 314, 2-[6-[[2-(trifluoromethyl)pyrimi-din-4-yl]methyl]-2-azaspiro[3.3]heptane-2-carbonyl]-2,5-diazaspiro[3.4]octan-6-one], for which it took 8.62 nM to reach half-maximal inhibition (IC50).

`O=C1CCC2(CN(C(=O)N3CC4(CN(Cc5cnc(C(F)(F)F)s5)C4)C3)C2)N1` [Example 315, 2-[6-[[2-(trifluoromethyl)thiazol-5-yl]methyl]-2,6-diazaspiro[3.3]heptane-2-carbonyl]-2,5-diazaspiro[3.4]octan-6-one] came in with an IC50 of 206 nM. Under `O=C1CCC2(CN(C(=O)N3CC4(CN(Cc5cn[nH]c5C(F)(F)F)C4)C3)C2)N1` [Example 316, 2-[6-[[5-(trifluoromethyl)-1H-pyrazol-4-yl]methyl]-2,6-diazaspiro[3.3]heptane-2-carbonyl]-2,5-diazaspiro[3.4]octan-6-one] stands 553 nM; under `O=C1CCC2(CN(C(=O)N3CC4(CCN(Cc5ccc(C(F)(F)F)nn5)C4)C3)C2)N1` [Example 317, 2-[7-[[6-(trifluoromethyl)pyrida-zin-3-yl]methyl]-2,7-diazaspiro[3.4]octane-2-carbonyl]-2,5-diazaspiro[3.4]octan-6-one], 1040 nM; under `O=C1NC2(CO1)CN(C(=O)N1CC3(C1)CN(c1cncc(F)c1)C3)C2` [Example 318, 2-[6-(5-fluoro-3-pyridyl)-2,6-diazaspiro[3.4]heptane-2-carbonyl]-7-oxa-2,5-diazaspiro[3.4]octan-6-one], 146 nM.

In the case of `O=C1CCC2(CN(C(=O)N3CC4(CC(Cc5nc(C(F)(F)F)cs5)C4)C3)C2)N1` [Example 319, 2-[6-[[4-(trifluoromethyl)thiazol-2-yl]methyl]-2-azaspiro[3.3]heptane-2-carbonyl]-2,5-diazaspiro[3.4]octan-6-one], half-maximal inhibition (IC50) required 12.4 nM. Under `O=C1CCC2(CN(C(=O)N3CC4(CC(Cc5ccc6ncnn6c5)C4)C3)C2)N1` [Example 320, 2-[6-([1,2,4]triazolo[1,5-a]pyridin-6-ylmethyl)-2-azaspiro[3.3]heptane-2-carbonyl]-2,5-diazaspiro[3.4]octan-6-one] stands 171 nM; under `O=C1CCC2(CN(C(=O)N3CC4(CC(Cc5ccc6[nH]ncc6n5)C4)C3)C2)N1` [Example 321, 2-[6-(1H-pyrazolo[4,3-b]pyridin-5-ylmethyl)-2-azaspiro[3.3]heptane-2-carbonyl]-2,5-diazaspiro[3.4]octan-6-one], 88.2 nM.
